Laboratory results from patent US20190151320A1, “APPLICATION OF MAPK SIGNALING PATHWAY INHIBITOR IN MANUFACTURE OF DRUGS FOR DELAYING DEGENERATION OF DOPAMINERGIC NEURONS” (FUZHOU UNIVERSITY, priority 2016, published 2019).

Tested on: dopaminergic neurons in the PPL brain region
Assay: Dopaminergic neuron morphology and quantity in PPL brain regions of PD model fruit flies after 30 days of drug feeding
Assay type: in vivo, Drosophila melanogaster
Conditions: fruit fly PD models (alpha-synuclein overexpression, Lrrk2 overexpression, Parkin mutation, Pink1 mutation); for effect on degenerative death/loss of dopaminergic neurons in the PPL brain region (morphology and quantity): 1 μg/mL in feed for 30 days
Protocol: Animal models of PD caused by alpha-synuclein transgene overexpression, Lrrk2 transgene overexpression, Parkin gene mutation and Pink1 gene mutation were established in the four model groups. Each group includes 90 fruit flies and each group was further equally divided into three groups, drug-feeding groups and non-drug-feeding control group, for testing. Starting from imago at the age of 5 days, the drug-feeding group was continuously fed with 0.1 μg/mL, 1 μg/mL U0126 (U0126 is dissolved in 1% DMSO) for 30 days and the non-drug-feeding control group was fed with 1% DMSO as a solvent control. After 30 days of drug or control solvent feeding, the brains of fruit flies were dissected and the dopamine neurons were labeled by the whole-tissue immunostaining of the brains of the fruit flies with an anti-dopamine hydroxylase antibody. The morphology and quantity of the dopamine neurons in the PPL regions in the brains of the fruit flies were observed microscopically to determine the effect of U0126 on the dopaminergic neurons in the local brain regions.
Animal models of PD caused by alpha-synuclein transgene overexpression, Lrrk2 transgene overexpression, Parkin gene mutation and Pink1 gene mutation were established in the four model groups. Each group includes 90 fruit flies and each group was further equally divided into 2 drug-feeding groups and 1 non-drug-feeding control group for testing. […] The morphology and quantity of the dopamine neurons in the PPL regions in the brains of the fruit flies were observed microscopically to determine the effect of PD0325901 on the dopaminergic neurons in the local brain regions of the fruit flies.
Animal models of PD caused by alpha-synuclein transgene overexpression, Lrrk2 transgene overexpression, Parkin gene mutation and Pink1 gene mutation were established in the four model groups. […] The morphology and quantity of the dopamine neurons in the PPL regions in the brains of the fruit flies were observed microscopically to determine the effect of trametinib on the dopaminergic neurons in the local brain regions of the fruit flies.

Row | SMILES | effect on degenerative death of dopaminergic neurons in the PPL brain region (morphology and quantity) (16.24 μM/mL in feed for 30 days) | effect on degenerative death/loss of dopaminergic neurons in the PPL brain region (morphology and quantity)
1 | CC(=O)Nc1cccc(-n2c(=O)n(C3CC3)c(=O)c3c(Nc4ccc(I)cc4F)n(C)c(=O)c(C)c32)c1 [trametinib] | can effectively reverse the degenerative death of the dopaminergic neurons | –
2 | N#CC(=C(/N)Sc1ccccc1N)/C(C#N)=C(\N)Sc1ccccc1N [U0126] | – | can effectively reverse the degenerative death of the dopaminergic neurons
3 | O=C(NOC[C@H](O)CO)c1ccc(F)c(F)c1Nc1ccc(I)cc1F [PD0325901] | – | can effectively reverse the degenerative loss of the dopaminergic neurons
